Assays:
OVCAR-3 cells = test: Cell cycle by EdU flow cytometry (dose, time, washout, tracing); type: cell-based, human
Method: Cells were plated at 100,000 cells/well in Corning 6 cm tissue culture treated plates. […] Cells were collected and fixed in 1% paraformaldehyde. Cells were incubated with Alexa488 azide dye as described by Thermo Scientific. Cells were then incubated with Fxcycle-violet and RNase. Cells were analyzed on a BD Celesta and data compiled using FloJo and GraphPad.
The OVCAR3 human ovarian carcinoma cell line was grown in RPMI-1640/1× Glutamax/1× Insulin/10% fetal bovine serum and was plated at 300,000 cells/well in Corning 6 cm tissue culture treated plates. […] Cells were treated for the indicated amount of time (24 hours or 48 hours), with 10 μM EdU added for the last hour of treatment. Cells were collected and fixed in 1% paraformaldehyde. Cells were incubated with Alexa 488 (A488) azide dye as described by Thermo Scientific. Cells were then incubated with FarRed dye and RNase. Cells were analyzed on a BD Celesta and data compiled using FloJo and GraphPad Prism (FIG. 13A-B).
The OVCAR3 human ovarian carcinoma cell line was grown in RPMI-1640/1× Glutamax/1× Insulin/10% fetal bovine serum and was plated at 300,000 cells/well in Corning 6 cm tissue culture treated plates. […] At 24 hours, the remaining plates were rinsed with media before un-treated media was added back. Cells were collected at the indicated times, with 10 μM EdU added for the last hour (FIG. 14A). Cells were collected and fixed in 1% paraformaldehyde. Cells were incubated with Pacific blue azide dye as described by Thermo Scientific. Cells were then incubated with FarRed dye and RNase. Cells were analyzed on a BD Celesta and data compiled using FloJo and GraphPad. […] By 18 hours, OVCAR-3 cells were in G2 or reentering G1. Cells appeared to remain somewhat synchronized over 48 hours.
The OVCAR3 human ovarian carcinoma cell line was grown in RPMI-1640/1× Glutamax/1× Insulin/10% fetal bovine serum and was plated at 300,000 cells/well in Corning 6 cm tissue culture treated plates. […] Cells were divided into two sets. The first set was treated for the indicated amount of time, with 10 μM EdU added for the last hour of treatment before being collected. The second set of cells were treated for the indicated amount of time and had EdU added for one hour before the timepoint. Then the media was aspirated, the cells washed, and re-treated with treatment media. The second set of cells was collected at 48 hours, allowing for tracing of the EdU positive cells. Cells were collected and fixed in 1% paraformaldehyde. Cells were incubated with Alexa 488 (A488) azide dye as described by Thermo Scientific. Cells were then incubated with FarRed dye and RNase. Cells were analyzed on a BD Celesta and data compiled using FloJo and GraphPad. […] Several “snap shots” of cells at various timepoints, followed by where the cells from S phase ended up at the end of 48 hours of treatment, were collected. […] It appears that the cells in S phase at after 6 hours of treatment are arresting in G1 (FIG. 15B). At 24 hours of treatment, little to no cells were in S phase so there were no cells to trace (FIG. 15C). Although the DMSO sample appears largely different at 48 hours, the distribution appears similar to the DMSO, EdU free cells at 48 hours. […] (FIG. 15D).

[1] = system: pRb, cyclin E in FUOV-1 cells; test: Western blot pRb and cell cycle proteins; type: cell-based, human; details: 30-1000 nM, 24 hours
Method: An independent human ovarian carcinoma cell line, FUOV-1, was grown in DMEM/F12/1× Glutamax/10% fetal bovine serum and plated at 300,000 cells/well in Corning 6 well tissue culture treated plates. Cells were incubated at […] for 24 hours prior to addition of 2 replicates of 0.1% DMSO control and 1 replicate for each treatment. […] Cells were collected by washing each well twice with cold PBS, then scraping cells in the presence of 150 μL cold RIPA with protease and phosphatase inhibitors. Lysates were clarified by centrifugation at 14,000×g for 10 min at 4° C. and supernatants transferred to clean tubes. A BCA assay was performed to determine the protein concentration of each lysate. A total of 30 μg of protein was mixed with sample buffer and reducing agent before being run on a 4-12% SDS-PAGE. Protein was transferred to a nitrocellulose membrane and blocked with LI-COR blocking buffer for 1 hour. Membranes were incubated overnight in primary antibody at 4° C. Following 3 washes with TBS-T, membranes were incubated for 45 minutes in LI-COR secondary antibodies. Following 2 washes in TBS-T, and one TBS wash, membranes were scanned using a LI-COR OdysseyCLx. Image studio was used for image analysis.

[2] = system: OVCAR3 human ovary carcinoma CDX; test: OVCAR3 cell line-derived xenograft (tumor volume, body weight, tumor Western blot); type: in vivo, mice
Method: 10 million OVCAR3 human ovary carcinoma cells were injected into athymic nude female mice. The study was initiated at a mean tumor volume of approximately 100-200 mm^3. […] The test agents were delivered at 5 mL/kg by oral gavage.
Tumors from FIG. 146A were harvested at the end of study and snap frozen. A small piece of each tumor was removed while frozen and lysed with 150 μL cold RIPA with protease and phosphatase inhibitors while being homogenized with mortar and pestle. Lysates were clarified by centrifugation at 14 kxg for 10 min at 4° C. and supernatants transferred to clean tubes. A BCA assay was performed to determine the protein concentration of each lysate. 30 μg of protein was mixed with sample buffer and reducing agent before being run on a 4-12% SDS-PAGE. Protein was transferred to a nitrocellulose membrane and blocked with LI-COR blocking buffer for 1 hour. Membranes were incubated overnight in primary antibody at 4° C. Following 3 washes with TBST, membranes were incubated for 45 minutes in LI-COR secondary antibodies. Following 2 washes in TBST, and one TBS wash, membranes were scanned using a LI-COR OdysseyCLx. Image studio was used for image analysis.

## NS(=O)(=O)c1ccc(Nc2ncc3cc4n(c3n2)C2(CCCCC2)C(=O)NN4)cc1 [Compound I]
OVCAR-3 cells; 10 nM to 10 μM, 24 hours
  cell cycle distribution with increasing concentrations: exit the S-phase and increasingly occupy the G0-G1 phase
OVCAR-3 cells; 100 nM
  G1 arrest over 48 h: does not arrest all cells in G1
OVCAR-3 cells; 300 nM
  G1 arrest over 48 h: performs just as well
OVCAR-3 cells; 300 nM, 24 hours
  cells arrested in G1: Approximately 80%
OVCAR-3 cells; 1, 6, 24 and 48 hours of treatment
  cells proceeding to S phase compared with PF-07104091: permits fewer cells to proceed to S phase
OVCAR-3 cells; traced to 48 hours
  fate of cells in S phase at treatment initiation (EdU tracing): become arrested in G1
[1]
  cyclin E amplification: no cyclin E amplification was observed
  pRb levels: decreases pRb levels in a dose-dependent manner
[2]; 100 mg/kg BID, 42 days
  tumor outcome: tumor stasis
[2]; 200 mg/kg QD, 42 days
  TGI: 89%
[2]; 100 mpk BID and 200 mpk QD, out to 42 days
  tumor outcome: durable tumor stasis or regression
[2]; 100 mpk BID, at least 24 hours post-final dose
  Rb1 phosphorylation and cyclin A2 levels in ex vivo tumor samples: substantially reduces Rb1 phosphorylation and cyclin A2 levels
[2]; at any point
  body weight loss: ≤ 5%
